According to US10287337B2 (priority 2015, dated 2019):

What was measured:
Type in all cases: in vivo, rat
[1] = system: spared nerve injury-induced neuropathic pain in rats; experiment: Spared nerve injury (SNI)-induced neuropathic pain model, thermal and mechanical pain thresholds; settings: 50 μL
Description: Of the three branches of the sciatic nerve the tibial and common peroneal nerves were cut and ligated leaving the sural nerve intact. Pre-surgery baselines (BL, 100%) of the thermal and mechanical pain thresholds of the ipsilateral hindpaws were measured using the Hargreaves thermal stimulator (6.0 A with a surface temperature of 30° C.; Hargreaves et al., 1988) and von Frey hair monofilaments (up-down method, Chaplan et al., 1994). […] All drug testing was conducted with this post-SNI period.
The rat recovered from anesthesia within a few minutes and the thermal and mechanical pain thresholds were determined at 0.5, 1, 2, 3, 4, 5 and 6 hour after the treatment using the methods described above.
Using the same test protocol in a different cohort of SNI rats, novel AFA-peptide 3 (0.1, 1 and 3 μM, each 50 μL) or the vehicle (50 μL) was injected into the ipsilateral hindpaws under a brief and light anesthesia condition (with 2.5% isoflurane). The thermal and mechanical pain thresholds were determined at 0.5, 1, 2, 3, 4, 5 and 6 hour after the treatment. […]

[2] = system: tibial neuroma-induced neuropathic pain in rats; experiment: Tibial neuroma transposition model, neuroma tenderness; settings: injected into skin over neuroma site
From the text: Sprague Dawley rats (male, approximately 400 g) were undergone surgery as described by Dorsi et al., briefly, a 2-3 cm incision was made through the skin and subcutaneous fascia of the ventral surface of the pelvic leg extending from the tarsometatarsal joint to approximately 1 cm distal to the level of the stifle the nerve was isolated and the posterior tibial branch was ligated and then sharply transected approximately 2 mm distal to the ligature, as illustrated in FIG. 8A. After the medial skin incision closure, the rat was transferred to a recovery cage devoid of bedding and placed halfway upon a recirculating hot water pad until standing; once recovered, the rat was returned to its home cage and monitored daily for signs of pain and wound dehiscence.
The rats were allowed to recover from the surgical procedure before beginning behavioral testing to assess neuroma development. On post-operative days 7 and 14, rats were assessed for mechanical pain using the “up-down” method of Von Frey mechanical testing and direct mechanical stimulation of the neuroma (referred to as neuroma tenderness testing). Neuroma tenderness was tested by applying the 15 g filament to the neuroma site up to five times in a series with a three second break between applications; the series was completed and scored as a positive as soon as a positive withdrawal response is seen. […]

[3] = system: electrocutaneous stimulation-induced facial pain in rats; experiment: Electrocutaneous stimulation-induced facial inflammatory pain model; settings: intranasal
Description: In humans electrocutaneous stimulation elicited vasodilatation in the cheek (Vassend and Knardahl, 2005). […] Baseline facial thermal thresholds of rats (Sprague-Dawley, male, 260-300 g) were assessed on the rats' depilated left cheek and then each rat received 1 hour of electrocutaneous facial stimulation using WPI ISOSTIM™ A320 (World Precision Instruments, 0.4 mA intensity, 10 ms duration, Is inter-pulse interval). 24 hr after stimulation (Day 1), each rat's thermal pain threshold mediated by A-delta fiber and C fiber were separately measured using a thermal nociception lamp (variable voltage regulator model: No. SC-3M) to evoke A-delta and C nerve fiber-mediated cheek withdrawal. […] Thermal thresholds were measured once every 0.5 hour for the first 3 hours post-I.N. dosing, and then 4, 5, and 6 hour post-I.N. dosing. Voltage regulator set to 90V for A-delta fiber testing and 45V for C fiber testing. Cutoff set at 6 seconds and 20 seconds for A-delta fiber and C fiber testing, respectively.

[4] = system: paw incision-induced postoperative pain in rats; experiment: Paw incision-induced postoperative pain model, mechanical pain threshold
From the text: A clinically applicable incision model in rodents is a hind-paw deep incision that produces a robust mechanical and cold allodynia, and thermal hyperalgesia (Pogatzki et al., 2003; Xu and Brennan, 2010). Male rats (Sprague-Dawley, 250-260 g, Harlan) used (n=8/group) were anesthetized with 2.5% isoflurane and the skin of the dorsolateral hindpaw surface were prepped by first depilitating it (using Nair), followed by rinsing and application of povidone-iodine. Afterwards, a 5 mm longitudinal incision was made near the hairy/glabrous border though the skin and subcutaneous fascia of the left hindpaw as described by (Pogatzki et al., 2003; Xu and Brennan, 2010). After briefly elevating the underlying muscle with curved forceps the wound is closed with a single nylon (8-0) mattress stitch.
Pre-surgery (baseline) and 24 hours after the surgery, the mechanical allodynia of the incision hindpaws of the rats were assessed using von Frey monofilaments with an up/down procedure (Chaplan et al., 1994). […] Mechanical pain thresholds were measured at 0.5, 1, 2, 3, 4, 5 and 6 hours post-intradermal injection.

[5] = daily intradermal injection 1 μM, 10 consecutive days
[6] = intradermal injection 1 μM, 50 μL, 24 hours after incision
[7] = prevention: injection 1 μM, 50 μL just prior to closing of the wound

## H-NFVPTNVGPFAF-NH2 [AFA-peptide 3, NH2-N-F-V-P-T-N-V-G-P-F-A-F-CONH2]
[1]; [5]
  analgesic effect on repeated dosing (in words): consistent analgesic effects
  tolerance on repeated dosing (in words): did not cause tolerance
[1]; local intradermal injection into SNI ipsilateral hindpaw, 0.5-6 hour after treatment, vs vehicle
  thermal and mechanical pain thresholds (in words): produced analgesic effects, particularly on thermal pain in a dose-related manner
[2]
  duration of analgesic effect: 3 to 4 h
[2]; 0.3 and 1 μM, 50 μL
  neuroma tenderness (in words): reduced neuroma tenderness in dose-related manner
[3]; 1 μM
  A-delta fiber-mediated pain withdrawal latencies vs vehicle (in words): significantly prolonged
  C-fiber-mediated pain withdrawal latencies vs vehicle (in words): even more substantial and significantly prolonged
[3]; data not shown
  thermal pain thresholds in naïve, non-facial stimulation rats (in words): did not alter thermal pain thresholds
[4]; [6]
  duration of action: around 6 hours
  mechanical pain threshold (in words): significantly increased
[4]; [7]
  duration of action: 24 h
  mechanical pain thresholds vs vehicle (in words): significantly increased mechanical pain thresholds
[4]; prevention: injection just prior to closing of the wound, second timepoint assessed
  onset of analgesic effect post treatment: 1 h
